Assay results from PMC2453633 (Diabetes, 2008).
Peptide text beside a SMILES is read from it.

What was measured:
I-A^g7 = biological target: T1, I-A^g7 (Mus musculus, UniProt P04228+Q31135); assay type: binding
T1 sequence (P04228 24-256): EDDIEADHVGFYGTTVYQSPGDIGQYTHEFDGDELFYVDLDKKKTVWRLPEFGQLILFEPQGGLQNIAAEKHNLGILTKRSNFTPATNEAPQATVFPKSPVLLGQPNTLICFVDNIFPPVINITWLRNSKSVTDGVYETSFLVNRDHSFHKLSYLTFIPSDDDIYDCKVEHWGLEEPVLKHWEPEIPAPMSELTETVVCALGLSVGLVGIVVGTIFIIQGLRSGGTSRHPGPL
T1 sequence (Q31135 1-263): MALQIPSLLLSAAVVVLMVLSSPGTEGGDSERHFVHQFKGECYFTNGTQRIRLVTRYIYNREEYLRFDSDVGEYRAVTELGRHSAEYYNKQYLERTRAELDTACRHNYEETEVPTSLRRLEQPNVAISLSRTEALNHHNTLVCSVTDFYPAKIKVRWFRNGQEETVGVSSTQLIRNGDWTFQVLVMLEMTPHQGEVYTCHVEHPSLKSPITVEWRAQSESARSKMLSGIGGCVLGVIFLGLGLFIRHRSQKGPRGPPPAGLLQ

ACP T-cell hybridomas = assay: T-cell hybridoma reactivity with nonamers spanning PI-1; assay type: cell-based, mouse; conditions: eight ACP T-cell hybridomas tested; all negative
I-A^k = I-A^k (Mus musculus, UniProt P01910+P06343); assay: Peptide-binding assay on soluble I-A^k

Molecule	IC50 (I-A^g7) [µM]	T-cells reactive with nonamer (of T-cells tested) (ACP T-cell hybridomas)	IC50 (I-A^k) [µM]
CC(C)C[C@H](NC(=O)[C@H](C)NC(=O)[C@H](CC(C)C)NC(=O)[C@@H](NC(=O)[C@H](CCC(N)=O)NC(=O)[C@H](CC(C)C)NC(=O)[C@H](CC(=O)O)NC(=O)CN)[C@@H](C)O)C(=O)N[C@@H](CCC(=O)O)C(=O)N[C@H](C(=O)N[C@@H](C)C(=O)N[C@@H](CCCNC(=N)N)C(=O)N[C@@H](CCC(N)=O)C(=O)O)C(C)C [PI-1(49–61)] (H-GDLQTLALEVARQ-OH)	20	–	–
LQTLALEVA	–	0 of 8	–
QTLALEVAR	–	0 of 8	–
CC(C)C[C@H](NC(=O)[C@H](C)NC(=O)[C@H](CC(C)C)NC(=O)[C@@H](NC(=O)[C@H](CCC(N)=O)NC(=O)[C@H](CC(C)C)NC(=O)[C@H](CC(=O)O)NC(=O)CNC(=O)[C@@H]1CCCN1C(=O)[C@@H](N)CO)[C@@H](C)O)C(=O)N[C@@H](CCC(=O)O)C(=O)N[C@H](C(=O)N[C@@H](C)C(=O)N[C@@H](CCCNC(=N)N)C(=O)N[C@@H](CCC(N)=O)C(=O)N[C@@H](CCCCN)C(=O)N[C@@H](CCCNC(=N)N)C(=O)NCC(=O)O)C(C)C [PI-1(47–64)] (H-SPGDLQTLALEVARQKRG-OH)	98.9	–	4.8
TLALEVARQ	–	0 of 8	–
CC(C)C[C@H](NC(=O)[C@H](C)NC(=O)[C@H](CC(C)C)NC(=O)[C@@H](NC(=O)[C@H](CCC(N)=O)NC(=O)[C@H](CC(C)C)NC(=O)[C@H](CC(=O)O)NC(=O)CNC(=O)[C@H](C)NC(=O)CN)[C@@H](C)O)C(=O)N[C@@H](CCC(=O)O)C(=O)N[C@H](C(=O)N[C@@H](C)C(=O)N[C@@H](CCC(N)=O)C(=O)N[C@@H](CCC(N)=O)C(=O)N[C@@H](CCCCN)C(=O)N[C@@H](CCCNC(=N)N)C(=O)NCC(=O)O)C(C)C [PI-2(49–66)] (H-GAGDLQTLALEVAQQKRG-OH)	136	–	2.1
CC(C)[C@H](NC(=O)[C@H](CCCCN)NC(=O)[C@H](CCCCN)NC(=O)CN)C(=O)N[C@@H](C)C(=O)N[C@H](C(=O)N[C@H](C(=O)N[C@H](C(=O)N[C@@H](Cc1c[nH]cn1)C(=O)N[C@@H](C)C(=O)NCC(=O)N[C@@H](Cc1ccc(O)cc1)C(=O)NCC(=O)O)C(C)C)[C@@H](C)O)[C@@H](C)O [MIME, reference compound] (H-GKKVATTVHAGYG-OH)	1	–	–
